Test results reported in patent US20130317116A1, “EXTERNAL SKIN PREPARATION” (JX NIPPON OIL & ENERGY CORPORATION, priority 2011, published 2013).

Assay: Singlet oxygen quenching activity of carotenoids by the ESR method
Type: physicochemical
Conditions: for singlet oxygen quenching activity compared with astaxanthin: ESR method, Table 3 and FIG. 1; for ESR signal intensity / ESR signal intensity Mean: carotenoid 2.5 mM, lower intensity = more effective quenching; for ESR signal intensity: hematoporphyrin + UVA, TMPD spin trap; for ESR signal intensity Mean: mean of three independent experiments, control 3.20
Text: Crosslinking of dermal collagen by singlet oxygen is one reason for wrinkle formation caused by photoaging (Non-Patent Document 1). If the external skin preparation according to the present invention can quench singlet oxygen, specifically, changes in collagen as observed on the photoaged skin can be inhibited, and anti-aging effects can be exerted. Accordingly, pharmacological evaluation of the external skin preparation according to the present invention in respect of improvement and prevention of wrinkle formation can be performed using the singlet oxygen quenching capacity as the indicator. For example, pharmacological evaluation of the external skin preparation according to the present invention can be performed by determining whether or not the external skin preparation according to the present invention has sufficient singlet oxygen quenching capacity by the electron spin resonance (ESR) method that is employed for evaluation of the singlet oxygen quenching activity.
Evaluation was carried out by the ESR method using an ESR apparatus (JEOLJES-FR30, JEOL Ltd.). The method of evaluation is described below.
50 μl of 250 mM spin trap agent, 50 μl of an aqueous solution of 2,2,6,6-tetramethyl-4-piperidione (TMPD), and 50 μl of an acetone solution of 10 mM carotenoid were added to 50 μl of 100 mM phosphate buffer (pH 7.4), these components were thoroughly mixed, 50 μl of an aqueous solution of 0.25 mM hematoporphyrin was added thereto as a singlet oxygen generator, and the resultant was irradiated with ultraviolet A (UVA) to generate singlet oxygen.
Subsequently, ESR signals based on stable nitroxyl radicals (4-oxo-TEMPO) generated upon the reaction between singlet oxygen and TMPD in the reaction solution were measured.
No antioxidant was applied to a control group. The results are the mean and the standard deviations of three independent experiments.

[1] = first of three independent experiments
[2] = second value column of three independent experiments
[3] = third value column of three independent experiments

Row | SMILES | singlet oxygen quenching activity compared with astaxanthin | ESR signal intensity [1] | ESR signal intensity [2] | ESR signal intensity [3] | ESR signal intensity Mean
1 | CC1=C(/C=C/C(C)=C/C=C/C(C)=C/C=C/C=C(C)/C=C/C=C(C)/C=C/C2=C(C)C(=O)[C@@H](O)CC2(C)C)C(C)(C)CCC1=O [Adonirubin, adonirubin] | significantly higher than that of astaxanthin | 0.79 | 1.13 | 1.11 | 1.01
2 | CC1=C(/C=C/C(C)=C/C=C/C(C)=C/C=C/C=C(C)/C=C/C=C(C)/C=C/C2=C(C)C(=O)[C@@H](O)CC2(C)C)C(C)(C)C[C@H](O)C1 [Adonixanthin, adonixanthin] | significantly higher than that of astaxanthin | 0.74 | 0.97 | 0.72 | 0.81
3 | CC1=C(/C=C/C(C)=C/C=C/C(C)=C/C=C/C=C(C)/C=C/C=C(C)/C=C/C2=C(C)C(=O)[C@@H](O)CC2(C)C)C(C)(C)C[C@H](O)C1=O [Astaxanthin, astaxanthin, reference compound] | – | 2.00 | 2.33 | 2.72 | 2.35
